We go through one substance from publication PMC3269530 (Journal of Molecular Biology, 2011).

Assay [1] deals with R277E mutant of ArfA-c(D236A). The assay is classed as binding, M. tuberculosis.
Assay [2] has as its system ArfA-c(D236A). It counts as binding, M. tuberculosis. To be noted: pH 7.

Turning to “uridine-5'-diphosphate–MurNAc–L-Ala–D-γ-Glu–m-DAP–D-Ala– D-Ala [UMDP]”, the “changes in the NMR spectrum of the R277E mutant” value in assay [1] was “no changes were observed”. The “peak changes in 1H/15N NMR spectrum on addition of peptide” value in assay [2] is “several peak frequency and intensity changes”.
